The subject of series [1] is hypoxic Langendorff mouse hearts. Kind of series: hypoxic Langendorff mouse hearts perfused with enantiomer: myocardial glucose uptake and time to cessation of beating. To be noted: hypoxic heart, 10^−7M solution.
In another series the test system is canine myocardium. The series is described as follows: cardiac oxygen consumption in canine myocardium in vitro. In kind it is cell-based.
The test system of series [2] is canine coronary microvessels, epicardial coronary artery and aorta. Kind of series: nitrite production (vascular NO release) in canine coronary microvessels, epicardial coronary artery and aorta. In kind it is cell-based.
The test system of series [3] is vascular smooth muscle cell. To be noted: in vitro; cited from earlier work.
For series [4] the following is noted: in vivo; cited from earlier work.
Another series deals with calcium channel. To be noted: cited from earlier work.
[5] abbreviates: identical study, increasing concentrations.

SMILES strings stand for the structures. “And” between values parts separate entries of the source, which are not always exact repeats. Identical values can stand only once.

Turning to `CCOC(=O)C1=C(COCCN)NC(C)=C(C(=O)OC)[C@H]1c1ccccc1Cl` (single isomer, unassigned) [R(+) enantiomer], in series [1], the “increase in survival time” value was “three-fold” and the “reduction in myocardial glucose uptake” value is reported as “over 50%”. For the same compound, the “time to cessation of beating (TCB)” value in series [1] (untreated 9 minutes) is on record as “about 33 minutes”. Further, in series [1] (untreated hypoxic 0.57, normoxic 0.36), the “myocardial glucose uptake (MGU)” value is recorded as 0.27 μg/min.mg. Moreover, in the series with canine myocardium, the “effect of NO synthase inhibitor L-NAME on the reduction in oxygen consumption” value is listed as “wholly or partly blocked”. In the series on canine myocardium (enantiomer concentration of 10^−5M), the “reduction in oxygen consumption” value is listed as “about 30%”. The “effect of NO synthase inhibitor L-NAME on the increase in nitrite production” value in series [2] is “wholly or partly blocked”. Besides, the “concentration-dependent increase in nitrite production, up to” value in series [2] (enantiomer concentration of 10^−9M) is reported as “about 65 pmol/mg”. Also, the “free concentration at which maximum NO release as measured by nitrite production was observed” value in series [2] (free concentration) is 10^−9 M and 0.4 ng/ml. The “PDGF-induced vascular smooth muscle cell migration” value in series [3] was “inhibit”.
As for `CCOC(=O)C1=C(COCCN)NC(C)=C(C(=O)OC)[C@@H]1c1ccccc1Cl` (single isomer, unassigned) [S(−) enantiomer], the “dose in excess of which adverse effects arise (marked and sustained fall in blood pressure, reduced coronary blood flow)” value in series [4] is listed as above 0.5 mg/kg. Also, the “calcium channel-blocking activity of the racemate resides in” value with calcium channel is recorded as “largely, but not exclusively”. Also, the “effect of NO synthase inhibitor L-NAME on the reduction in oxygen consumption” value in the series on canine myocardium is “not blocked”. Further, the “reduction in oxygen consumption (in words)” value with canine myocardium (setting [5]) is listed as “a reduction in oxygen consumption was observed”. Moreover, the “nitrite production (in words)” value in series [2] (setting [5]) is “no evidence of nitrite production”.
